What was measured:
Test in all cases: combination Emax (second highest fraction inhibited in the dose matrix, 72 h); higher = more inhibition; extreme values may be limits of the assay
[1] = system: BE-13 (T-Lymphoblastic Leukemia)
In short: (§1)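 Bliss excess equals the observed combination effect minus the expected value EA + EB − EA·EB, where EA and EB are the effects of each agent alone. Combination Emax is the second-highest inhibition within the matrix. Inhibition was scaled from CellTiter-Glo 2.0 luminescence, with 0 set by vehicle wells and 1 by blank wells, after 72 hours of two-drug dosing of cells plated in 1536-well plates.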

[2] = system: GAMG (Glioblastoma)
In short: as §1

[3] = system: KS-1 (Glioblastoma)
In short: as §1

[4] = system: KYAE-1 (Esophageal Adenocarcinoma)
In short: as §1

[5] = system: MPP-89 (Mesothelioma)
In short: as §1

[6] = system: NCI-H524 (Small Cell Lung Carcinoma)
In short: as §1

[7] = system: SNU-16 (Gastric Carcinoma)
In short: as §1

[8] = system: SW1710 (Bladder Carcinoma)
In short: as §1

[9] = system: YAPC (Pancreatic Carcinoma)
In short: as §1

[10] = system: BE2-M17 (Neuroblastoma)
In short: as §1

[11] = system: CAL-33 (Oral Cavity Carcinoma)
In short: as §1

[12] = system: NCI-H2722 (Mesothelioma)
In short: as §1

[13] = system: NCI-H2052 (Mesothelioma)
In short: as §1

Compound: O=C(c1cc(Cc2n[nH]c(=O)c3ccccc23)ccc1F)N1CCN(C(=O)C2CC2)CC1 [Olaparib] + CC1(C)CCC(CN2CCN(c3ccc(C(=O)NS(=O)(=O)c4ccc(NCC5CCOCC5)c([N+](=O)[O-])c4)c(Oc4cnc5[nH]ccc5c4)c3)CC2)=C(c2ccc(Cl)cc2)C1 [Venetoclax] (first compound max 10 µM, 7x7, partner max 1 µM)
- combination Emax [1]: 0.315
- combination Emax [2]: 0.0955
- combination Emax [3]: 0.0863
- combination Emax [4]: 0.154
- combination Emax [5]: 0.0498
- combination Emax [6]: 0.206
- combination Emax [7]: 0.607
- combination Emax [8]: 0.114
- combination Emax [9]: 0.081

Compound: CN(CCO)CC[C@H](CSc1ccccc1)Nc1ccc(S(=O)(=O)NC(=O)c2ccc(N3CCC([C@@H](O)c4ccccc4-c4ccc(Cl)cc4)CC3)cc2)cc1S(=O)(=O)C(F)(F)F [AZD4320] + CS(=O)(=O)CCNCc1ccc(-c2ccc3ncnc(Nc4ccc(OCc5cccc(F)c5)c(Cl)c4)c3c2)o1 [Lapatinib] (first compound max 1 µM, 7x7, partner max 10 µM)
- combination Emax [1]: 1
- combination Emax [2]: 0.951
- combination Emax [3]: 0.475
- combination Emax [4]: 0.97
- combination Emax [5]: 0.746
- combination Emax [6]: 0.968
- combination Emax [7]: 0.941
- combination Emax [8]: 0.553
- combination Emax [9]: 0.257

Compound: C[C@@H]1COCCN1c1cc(C2([S@](C)(=N)=O)CC2)nc(-c2ccnc3[nH]ccc23)n1 [AZD6738] + Nc1ccn([C@@H]2O[C@H](CO)[C@@H](O)C2(F)F)c(=O)n1 [Gemcitabine] (first compound max 10 µM, 7x7, partner max 0.3 µM)
- combination Emax [1]: 1
- combination Emax [2]: 0.87
- combination Emax [4]: 0.0714
- combination Emax [5]: 0.63
- combination Emax [6]: 0.994
- combination Emax [7]: 1
- combination Emax [8]: 0.655
- combination Emax [9]: 0.725

Compound: Cc1nc(-c2cn3c(n2)-c2ccc(-c4cnn(C(C)(C)C(N)=O)c4)cc2OCC3)n(C(C)C)n1 [Taselisib] + O=C(Nc1ccc2[nH]nc(-c3ccncc3)c2c1)[C@@H]1CCN(CC(=O)N2CCN(c3ccc(-c4ncccn4)cc3)CC2)C1 [SCH772984] (first compound max 10 µM, 7x7, partner max 5 µM)
- combination Emax [1]: 0.373
- combination Emax [2]: 0.78
- combination Emax [3]: 0.677
- combination Emax [4]: 0.408
- combination Emax [5]: 0.688
- combination Emax [6]: 0.411
- combination Emax [7]: 0.82
- combination Emax [8]: 0.422
- combination Emax [9]: 0.701

Compound: CS(=O)(=O)CCNCc1ccc(-c2ccc3ncnc(Nc4ccc(OCc5cccc(F)c5)c(Cl)c4)c3c2)o1 [Lapatinib] + Cn1cnc2c(F)c(Nc3ccc(Br)cc3Cl)c(C(=O)NOCCO)cc21 [Selumetinib] (first compound max 10 µM, 7x7, partner max 10 µM)
- combination Emax [1]: 0.887
- combination Emax [2]: 0.644
- combination Emax [3]: 0.342
- combination Emax [4]: 0.83
- combination Emax [5]: 0.42
- combination Emax [6]: 0.305
- combination Emax [7]: 0.557
- combination Emax [8]: 0.317
- combination Emax [9]: 0.386

Compound: CCc1c2c(nc3ccc(O)cc13)-c1cc3c(c(=O)n1C2)COC(=O)[C@]3(O)CC [SN-38] + O=C(c1cc(Cc2n[nH]c(=O)c3ccccc23)ccc1F)N1CCN(C(=O)C2CC2)CC1 [Olaparib] (first compound max 0.3 µM, 7x7, partner max 10 µM)
- combination Emax [1]: 0.965
- combination Emax [10]: 0.89
- combination Emax [11]: 0.962
- combination Emax [2]: 0.762
- combination Emax [3]: 0.556
- combination Emax [4]: 0.118
- combination Emax [5]: 0.646
- combination Emax [12]: 0.38
- combination Emax [6]: 0.783
- combination Emax [7]: 0.848
- combination Emax [8]: 0.327
- combination Emax [9]: 0.646

Compound: CS(=O)(=O)CCNCc1ccc(-c2ccc3ncnc(Nc4ccc(OCc5cccc(F)c5)c(Cl)c4)c3c2)o1 [Lapatinib] + NC1(c2ccc(-c3nc4ccn5c(=O)[nH]nc5c4cc3-c3ccccc3)cc2)CCC1 [MK-2206] (first compound max 10 µM, 7x7, partner max 10 µM)
- combination Emax [1]: 0.971
- combination Emax [2]: 0.862
- combination Emax [3]: 0.403
- combination Emax [4]: 0.892
- combination Emax [5]: 0.152
- combination Emax [13]: 0.515
- combination Emax [6]: 0.941
- combination Emax [7]: 0.964
- combination Emax [8]: 0.602
- combination Emax [9]: 0.356

Compound: CC1(C)CCC(CN2CCN(c3ccc(C(=O)NS(=O)(=O)c4ccc(NCC5CCOCC5)c([N+](=O)[O-])c4)c(Oc4cnc5[nH]ccc5c4)c3)CC2)=C(c2ccc(Cl)cc2)C1 [Venetoclax] + CS(=O)(=O)CCNCc1ccc(-c2ccc3ncnc(Nc4ccc(OCc5cccc(F)c5)c(Cl)c4)c3c2)o1 [Lapatinib] (first compound max 1 µM, 7x7, partner max 10 µM)
- combination Emax [1]: 0.854
- combination Emax [2]: 0.284
- combination Emax [3]: 0.089
- combination Emax [4]: 0.758
- combination Emax [5]: 0.136
- combination Emax [6]: 0.108
- combination Emax [7]: 0.399
- combination Emax [8]: 0.18
- combination Emax [9]: 0.129

Compound: C[C@@H]1COCCN1c1cc(C2([S@](C)(=N)=O)CC2)nc(-c2ccnc3[nH]ccc23)n1 [AZD6738] + C1CC(C1)(C(=O)[O-])C(=O)[O-].N.N.[Pt+2] [Carboplatin] (first compound max 10 µM, 7x7, partner max 10 µM)
- combination Emax [1]: 0.737
- combination Emax [2]: 0.611
- combination Emax [3]: 0.431
- combination Emax [4]: 0.0812
- combination Emax [5]: 0.42
- combination Emax [6]: 0.687
- combination Emax [8]: 0.429
- combination Emax [9]: 0.369

Compound: O=C(c1cc(Cc2n[nH]c(=O)c3ccccc23)ccc1F)N1CCN(C(=O)C2CC2)CC1 [Olaparib] + CN(CC[C@H](CSC1=CC=CC=C1)NC2=C(C=C(C=C2)S(=O)(=O)NC(=O)C3=CC=C(C=C3)N4CCC(CC4)[C@H](C5=CC=CC=C5C6=CC=C(C=C6)Cl)O)S(=O)(=O)C(F)(F)F)CCO [AZD4320] (first compound max 10 µM, 7x7, partner max 1 µM)
- combination Emax [1]: 0.983
- combination Emax [2]: 0.223
- combination Emax [3]: 0.2
- combination Emax [4]: 0.587
- combination Emax [5]: 0.138
- combination Emax [6]: 0.755
- combination Emax [7]: 0.691
- combination Emax [8]: 0.265
- combination Emax [9]: 0.11

Compound: Cc1c2c(nn1C)CSCc1cc(n(C)n1)CSc1cc(c3ccccc3c1)OCCCc1c(C(=O)O)n(C)c3c-2c(Cl)ccc13 [AZD5991] + CC(=O)O[C@H]1C(=O)[C@@]2(C)[C@H]([C@H](OC(=O)c3ccccc3)[C@]3(O)C[C@H](OC(=O)[C@H](O)[C@@H](NC(=O)c4ccccc4)c4ccccc4)C(C)=C1C3(C)C)[C@]1(OC(C)=O)CO[C@@H]1C[C@@H]2O [Paclitaxel] (first compound max 1 µM, 7x7, partner max 3 µM)
- combination Emax [1]: 0.852
- combination Emax [2]: 0.999
- combination Emax [3]: 0.582
- combination Emax [4]: 0.175
- combination Emax [5]: 0.557
- combination Emax [6]: 0.929
- combination Emax [7]: 1
- combination Emax [8]: 0.836
- combination Emax [9]: 0.315

Compound: C[C@@H](Nc1cc(F)cc(F)c1)c1cc(C(=O)N(C)C)cc2c(=O)cc(N3CCOCC3)oc12 [AZD8186] + C1CN(CCC1(C(=O)N[C@@H](CCO)C2=CC=C(C=C2)Cl)N)C3=NC=NC4=C3C=CN4 [AZD5363] (first compound max 10 µM, 7x7, partner max 10 µM)
- combination Emax [1]: 0.16
- combination Emax [2]: 0.657
- combination Emax [3]: 0.458
- combination Emax [4]: 0.154
- combination Emax [5]: 0.382
- combination Emax [6]: 0.224
- combination Emax [7]: 0.22
- combination Emax [8]: 0.495
- combination Emax [9]: 0.246

Compound: Cc1c2c(nn1C)CSCc1cc(n(C)n1)CSc1cc(c3ccccc3c1)OCCCc1c(C(=O)O)n(C)c3c-2c(Cl)ccc13 [AZD5991] + Nc1ccn([C@@H]2O[C@H](CO)[C@@H](O)C2(F)F)c(=O)n1 [Gemcitabine] (first compound max 1 µM, 7x7, partner max 0.3 µM)
- combination Emax [1]: 0.923
- combination Emax [2]: 0.662
- combination Emax [3]: 0.288
- combination Emax [4]: 0.127
- combination Emax [5]: 0.428
- combination Emax [6]: 0.788
- combination Emax [7]: 1
- combination Emax [8]: 0.397
- combination Emax [9]: 0.575

Compound: O=C(c1cc(Cc2n[nH]c(=O)c3ccccc23)ccc1F)N1CCN(C(=O)C2CC2)CC1 [Olaparib] + COc1nnc2ccc(N3CCC(c4ccc(OCCN5CCN(C)C(=O)[C@H]5C)cc4)CC3)nn12 [AZD5153] (first compound max 10 µM, 7x7, partner max 1 µM)
- combination Emax [1]: 0.648
- combination Emax [2]: 0.448
- combination Emax [3]: 0.582
- combination Emax [4]: 0.156
- combination Emax [5]: 0.393
- combination Emax [6]: 0.542
- combination Emax [7]: 0.769
- combination Emax [8]: 0.379
- combination Emax [9]: 0.267

Compound: Cc1c2c(nn1C)CSCc1cc(n(C)n1)CSc1cc(c3ccccc3c1)OCCCc1c(C(=O)O)n(C)c3c-2c(Cl)ccc13 [AZD5991] + CS(=O)(=O)CCNCc1ccc(-c2ccc3ncnc(Nc4ccc(OCc5cccc(F)c5)c(Cl)c4)c3c2)o1 [Lapatinib] (first compound max 1 µM, 7x7, partner max 10 µM)
- combination Emax [1]: 0.936
- combination Emax [2]: 0.507
- combination Emax [3]: 0.147
- combination Emax [4]: 0.84
- combination Emax [5]: 0.312
- combination Emax [6]: 0.502
- combination Emax [7]: 0.998
- combination Emax [8]: 0.185
- combination Emax [9]: 0.186

Compound: C[C@@H](Oc1cc(-c2cnn(C3CCNCC3)c2)cnc1N)c1c(Cl)ccc(F)c1Cl [Crizotinib] + Cn1cnc2c(F)c(Nc3ccc(Br)cc3Cl)c(C(=O)NOCCO)cc21 [Selumetinib] (first compound max 10 µM, 7x7, partner max 10 µM)
- combination Emax [1]: 0.974
- combination Emax [2]: 0.54
- combination Emax [3]: 0.646
- combination Emax [4]: 0.0881
- combination Emax [5]: 0.37
- combination Emax [6]: 0.983
- combination Emax [7]: 0.989
- combination Emax [8]: 0.381
- combination Emax [9]: 0.526
